Experimental data: the NIST ThermoML archive (doi:10.1016/j.jct.2009.12.002)

Assay: molar heat capacity at constant pressure
Conditions: Liquid

CC(C)CCCCCCCOC(=O)c1ccccc1C(=O)OCCCCCCCC(C)C
molar heat capacity at constant pressure [J/K/mol]
Conditions | Flow calorimetry | Numerical integration with Cp at 1 atm and U at elevated pressures
293.15 K, 100 kPa | 754.86 | 755.75
293.15 K, 10000 kPa | – | 754.86
293.15 K, 20000 kPa | – | 753.52
293.15 K, 30000 kPa | – | 753.07
293.15 K, 40000 kPa | – | 752.18
293.15 K, 50000 kPa | – | 751.73
293.15 K, 60000 kPa | – | 751.29
293.15 K, 70000 kPa | – | 750.84
293.15 K, 80000 kPa | – | 750.84
293.15 K, 90000 kPa | – | 750.39
293.15 K, 100000 kPa | – | 750.39
293.15 K, 110000 kPa | – | 749.95
293.15 K, 120000 kPa | – | 749.95
293.15 K, 130000 kPa | – | 749.95
293.15 K, 140000 kPa | – | 749.95
303.15 K, 100 kPa | – | 771.39
303.15 K, 10000 kPa | – | 770.05
303.15 K, 20000 kPa | – | 768.71
303.15 K, 30000 kPa | – | 767.81
303.15 K, 40000 kPa | – | 767.37
303.15 K, 50000 kPa | – | 766.92
303.15 K, 60000 kPa | – | 766.47
303.15 K, 70000 kPa | – | 766.03
303.15 K, 80000 kPa | – | 765.58
303.15 K, 90000 kPa | – | 765.58
303.15 K, 100000 kPa | – | 765.13
303.15 K, 110000 kPa | – | 765.13
303.15 K, 120000 kPa | – | 765.13
303.15 K, 130000 kPa | – | 765.13
303.15 K, 140000 kPa | – | 765.13
313.15 K, 100 kPa | 788.81 | 786.57
313.15 K, 10000 kPa | – | 785.23
313.15 K, 20000 kPa | – | 784.34
313.15 K, 30000 kPa | – | 783.45
313.15 K, 40000 kPa | – | 782.55
313.15 K, 50000 kPa | – | 782.11
313.15 K, 60000 kPa | – | 781.66
313.15 K, 70000 kPa | – | 781.21
313.15 K, 80000 kPa | – | 781.21
313.15 K, 90000 kPa | – | 780.77
313.15 K, 100000 kPa | – | 780.77
313.15 K, 110000 kPa | – | 780.77
313.15 K, 120000 kPa | – | 780.77
313.15 K, 130000 kPa | – | 780.32
313.15 K, 140000 kPa | – | 780.32
323.15 K, 100 kPa | – | 802.65
323.15 K, 10000 kPa | – | 801.31
323.15 K, 20000 kPa | – | 799.97
323.15 K, 30000 kPa | – | 799.08
323.15 K, 40000 kPa | – | 798.63
323.15 K, 50000 kPa | – | 797.74
323.15 K, 60000 kPa | – | 797.29
323.15 K, 70000 kPa | – | 797.29
323.15 K, 80000 kPa | – | 796.85
323.15 K, 90000 kPa | – | 796.4
323.15 K, 100000 kPa | – | 796.4
323.15 K, 110000 kPa | – | 796.4
323.15 K, 120000 kPa | – | 796.4
323.15 K, 130000 kPa | – | 796.4
323.15 K, 140000 kPa | – | 796.4
333.15 K, 100 kPa | 816.5 | 818.73
333.15 K, 10000 kPa | – | 817.39
333.15 K, 20000 kPa | – | 816.05
333.15 K, 30000 kPa | – | 815.16
333.15 K, 40000 kPa | – | 814.27
333.15 K, 50000 kPa | – | 813.82
333.15 K, 60000 kPa | – | 813.37
333.15 K, 70000 kPa | – | 812.93
333.15 K, 80000 kPa | – | 812.93
333.15 K, 90000 kPa | – | 812.48
333.15 K, 100000 kPa | – | 812.48
333.15 K, 110000 kPa | – | 812.48
333.15 K, 120000 kPa | – | 812.48
333.15 K, 130000 kPa | – | 812.48
333.15 K, 140000 kPa | – | 812.48
343.15 K, 100 kPa | – | 835.26
343.15 K, 10000 kPa | – | 833.92
343.15 K, 20000 kPa | – | 832.58
343.15 K, 30000 kPa | – | 831.69
343.15 K, 40000 kPa | – | 830.79
343.15 K, 50000 kPa | – | 830.35
343.15 K, 60000 kPa | – | 829.9
343.15 K, 70000 kPa | – | 829.45
343.15 K, 80000 kPa | – | 829.01
343.15 K, 90000 kPa | – | 829.01
343.15 K, 100000 kPa | – | 829.01
343.15 K, 110000 kPa | – | 829.01
343.15 K, 120000 kPa | – | 829.01
343.15 K, 130000 kPa | – | 828.56
343.15 K, 140000 kPa | – | 829.01
353.15 K, 100 kPa | 852.23 | 852.23
353.15 K, 10000 kPa | – | 850.45
353.15 K, 20000 kPa | – | 849.11
353.15 K, 30000 kPa | – | 848.21
353.15 K, 40000 kPa | – | 847.32
353.15 K, 50000 kPa | – | 846.87
353.15 K, 60000 kPa | – | 846.43
353.15 K, 70000 kPa | – | 845.98
353.15 K, 80000 kPa | – | 845.98
353.15 K, 90000 kPa | – | 845.53
353.15 K, 100000 kPa | – | 845.53
353.15 K, 110000 kPa | – | 845.53
353.15 K, 120000 kPa | – | 845.53
353.15 K, 130000 kPa | – | 845.53
353.15 K, 140000 kPa | – | 845.53
363.15 K, 100 kPa | – | 869.21
363.15 K, 10000 kPa | – | 867.42
363.15 K, 20000 kPa | – | 866.08
363.15 K, 30000 kPa | – | 865.19
363.15 K, 40000 kPa | – | 864.29
363.15 K, 50000 kPa | – | 863.85
363.15 K, 60000 kPa | – | 863.4
363.15 K, 70000 kPa | – | 862.95
363.15 K, 80000 kPa | – | 862.95
363.15 K, 90000 kPa | – | 862.95
363.15 K, 100000 kPa | – | 862.51
363.15 K, 110000 kPa | – | 862.51
363.15 K, 120000 kPa | – | 862.51
363.15 K, 130000 kPa | – | 862.51
363.15 K, 140000 kPa | – | 862.51
373.15 K, 100 kPa | 893.77 | 886.62
373.15 K, 10000 kPa | – | 884.84
373.15 K, 20000 kPa | – | 883.5
373.15 K, 30000 kPa | – | 882.6
373.15 K, 40000 kPa | – | 881.71
373.15 K, 50000 kPa | – | 881.26
373.15 K, 60000 kPa | – | 880.82
373.15 K, 70000 kPa | – | 880.37
373.15 K, 80000 kPa | – | 880.37
373.15 K, 90000 kPa | – | 879.93
373.15 K, 100000 kPa | – | 879.93
373.15 K, 110000 kPa | – | 879.93
373.15 K, 120000 kPa | – | 879.93
373.15 K, 130000 kPa | – | 879.93
373.15 K, 140000 kPa | – | 879.93
383.15 K, 100 kPa | – | 904.49
383.15 K, 10000 kPa | – | 902.7
383.15 K, 20000 kPa | – | 901.36
383.15 K, 30000 kPa | – | 900.02
383.15 K, 40000 kPa | – | 899.58
383.15 K, 50000 kPa | – | 898.68
383.15 K, 60000 kPa | – | 898.24
383.15 K, 70000 kPa | – | 898.24
383.15 K, 80000 kPa | – | 897.79
383.15 K, 90000 kPa | – | 897.79
383.15 K, 100000 kPa | – | 897.79
383.15 K, 110000 kPa | – | 897.79
383.15 K, 120000 kPa | – | 897.79
383.15 K, 130000 kPa | – | 897.79
383.15 K, 140000 kPa | – | 897.79
393.15 K, 100 kPa | 914.32 | 922.8
393.15 K, 10000 kPa | – | 920.57
393.15 K, 20000 kPa | – | 919.23
393.15 K, 30000 kPa | – | 918.34
393.15 K, 40000 kPa | – | 917.44
393.15 K, 50000 kPa | – | 917
393.15 K, 60000 kPa | – | 916.55
393.15 K, 70000 kPa | – | 916.1
393.15 K, 80000 kPa | – | 916.1
393.15 K, 90000 kPa | – | 915.66
393.15 K, 100000 kPa | – | 915.66
393.15 K, 110000 kPa | – | 915.66
393.15 K, 120000 kPa | – | 915.66
393.15 K, 130000 kPa | – | 915.66
393.15 K, 140000 kPa | – | 916.1
403.15 K, 100 kPa | – | 941.12
403.15 K, 10000 kPa | – | 938.88
403.15 K, 20000 kPa | – | 937.54
403.15 K, 30000 kPa | – | 936.65
403.15 K, 40000 kPa | – | 935.76
403.15 K, 50000 kPa | – | 934.86
403.15 K, 60000 kPa | – | 934.86
403.15 K, 70000 kPa | – | 934.42
403.15 K, 80000 kPa | – | 934.42
403.15 K, 90000 kPa | – | 933.97
403.15 K, 100000 kPa | – | 933.97
403.15 K, 110000 kPa | – | 933.97
403.15 K, 120000 kPa | – | 933.97
403.15 K, 130000 kPa | – | 934.42
403.15 K, 140000 kPa | – | 934.42
413.15 K, 100 kPa | – | 959.88
413.15 K, 10000 kPa | – | 957.64
413.15 K, 20000 kPa | – | 956.3
413.15 K, 30000 kPa | – | 954.96
413.15 K, 40000 kPa | – | 954.07
413.15 K, 50000 kPa | – | 953.62
413.15 K, 60000 kPa | – | 953.18
413.15 K, 70000 kPa | – | 953.18
413.15 K, 80000 kPa | – | 952.73
413.15 K, 90000 kPa | – | 952.73
413.15 K, 100000 kPa | – | 952.73
413.15 K, 110000 kPa | – | 952.73
413.15 K, 120000 kPa | – | 952.73
413.15 K, 130000 kPa | – | 953.18
413.15 K, 140000 kPa | – | 953.18
423.15 K, 100 kPa | 981.32 | –
